Data taken from publication PMC4012464, “Design, Synthesis and Biological Evaluation of Tasiamide Analogues as Tumor Inhibitors” (Marine Drugs, 2014).
Read-outs that look alike come from different tables or passages of the source. Non-standard residues stand in square brackets, D forms with d. Residues, ends and D or L forms follow the SMILES beside them. *: point of attachment. Pentanoyl(2S-OH,3S-Me) = CC[C@H](C)[C@H](O)C(=O)*; Tetrahydroisoquinolin(2-yl) = c1ccc2c(c1)CCN(*)C2; dNMeF = CN[C@H](Cc1ccccc1)C(=O)O; NMeQ = CN[C@@H](CCC(N)=O)C(=O)O; Tic = O=C(O)[C@@H]1Cc2ccccc2CN1; X1 = CN(C)[C@H](CCC(N)=O)C(=O)*; dNMeQ = CN[C@H](CCC(N)=O)C(=O)O; NMeA = CN[C@@H](C)C(=O)O; Pentanoyl = CCCCC(=O)*; NHBn = c1ccc(CN*)cc1; Glycolyl = O=C(CO)*; NHPh = c1ccc(N*)cc1; OBn = c1ccc(CO*)cc1

Assays:
[1] = test system: A549, human non-small cell lung tumor cell line; assay: cells; assay type: cell-based; conditions: growth inhibition after 72 h of drug exposure, SRB staining, A515, means ± standard deviation from three independent experiments, read-out: In vitro inhibitory activity IC50, A549
Method: (§1) All of the prepared analogues (S1–S4, C1–C9, N1–N2, M1–M3) were tested for their in vitro anticancer activities against KB and A549 cell lines. Briefly, cells were seeded into 96-well plates and cultured overnight, treated with tested samples for 72 h. Then, the cells were fixed with 10% trichloroacetic acid (100 µL) and stained with sulforhodamine B (Sigma, St. Louis, MO, USA). The sulforhodamine B (100 µL) in the cells was dissolved in 10 mmol/L Tris-HCl (150 µL) and measured at 515 nm using a multiwell spectrophotometer (VERSAmax, Molecular Devices, Sunnyvale, CA, USA). The inhibition rate on cell proliferation was calculated for each well as (A515control cells − A515treated cells)/A515control cells × 100% (A515: optical density value at 515 nm). The average IC50 values were determined by the Logit method from at least three independent tests.

[2] = test system: KB, human nasopharyngeal carcinoma cell line; assay: cells; assay type: cell-based; conditions: growth inhibition after 72 h of drug exposure, SRB staining, A515, means ± standard deviation from three independent experiments, read-out: In vitro inhibitory activity IC50, KB
Method: as §1

[3] = test system: human colon carcinoma (LoVo) cell line; conditions: natural product isolated from Symploca sp.; cited from earlier work
Description: (§2) Marine cyanobacteria are a well-known prolific source of novel bioactive compounds [1, 2, 3], most of which are linear or cyclic (depsi)peptides with distinctive structures. […] The first total synthesis of tasiamide was reported by our group in 2008.

[4] = test system: human nasopharyngeal carcinoma (KB) cell line; conditions: natural product isolated from Symploca sp.; cited from earlier work
Description: as §2

IC50 ([1]; Homo sapiens) | IC50 ([2]; Homo sapiens) | SMILES | IC50 [1] | IC50 [2] | Cytotoxicity IC50, LoVo [3] | Cytotoxicity IC50, KB [4]
 |  | CCCCC(=O)N[C@@H](CC(C)C)C(=O)N(C)[C@H](CCC(N)=O)C(=O)N[C@H](C(=O)NCC(=O)N(C)[C@H](Cc1ccccc1)C(=O)NCc1ccccc1)[C@@H](C)CC [Compound N1, n-Pentanoyl-Leu-N-Me-D-Gln-Ile-Gly-N-Me-D-Phe-NH-Bn] (Pentanoyl-L[dNMeQ]IG[dNMeF]-NHBn) | > 50 µM | > 50 µM |  | 
 |  | CC[C@H](C)[C@H](O)C(=O)N[C@@H](CC(C)C)C(=O)N(C)[C@@H](CCC(N)=O)C(=O)N[C@H](C(=O)NCC(=O)N(C)[C@H](Cc1ccccc1)C(=O)Nc1ccccc1)[C@@H](C)CC [Compound C1, HO-Hmp-Leu-N-Me-Gln-Ile-Gly-N-Me-D-Phe-NH-Ph] ({Pentanoyl(2S-OH,3S-Me)}-L[NMeQ]IG[dNMeF]-NHPh) | 4.17 ± 0.51 µM | 3.21 ± 0.6 µM |  | 
 |  | CC[C@H](C)[C@@H](C(=O)NCC(=O)N(C)[C@H](Cc1ccccc1)C(=O)N1CCC[C@H]1C(=O)OC)N(C)C [Compound S2, N,N-Me2-Ile-Gly-N-Me-D-Phe-Pro-OMe] | > 50 µM | > 50 µM |  | 
 |  | CC[C@H](C)[C@H](O)C(=O)N[C@@H](CC(C)C)C(=O)N(C)[C@H](CCC(N)=O)C(=O)N[C@H](C(=O)NCC(=O)N(C)[C@H](Cc1ccccc1)C(=O)NCc1ccccc1)[C@@H](C)CC [Compound C4, HO-Hmp-Leu-N-Me-D-Gln-Ile-Gly-N-Me-D-Phe-NH-Bn] ({Pentanoyl(2S-OH,3S-Me)}-L[dNMeQ]IG[dNMeF]-NHBn) | 8.48 ± 1.39 µM | 1.29 ± 0.31 µM |  | 
 |  | CC[C@H](C)[C@H](O)C(=O)N[C@@H](CC(C)C)C(=O)N[C@H](CCC(N)=O)C(=O)N[C@H](C(=O)NCC(=O)N(C)[C@H](Cc1ccccc1)C(=O)NCc1ccccc1)[C@@H](C)CC [Compound M1, HO-Hmp-Leu-D-Gln-Ile-Gly-N-Me-D-Phe-NH-Bn] ({Pentanoyl(2S-OH,3S-Me)}-L[dQ]IG[dNMeF]-NHBn) | > 50 µM | > 50 µM |  | 
 |  | CC[C@H](C)[C@H](NC(=O)[C@@H](CCC(N)=O)N(C)C(=O)[C@H](CC(C)C)NC(=O)CO)C(=O)NCC(=O)N(C)[C@H](Cc1ccccc1)C(=O)NCc1ccccc1 [Compound N2, 2-Hydroxyacetyl-Leu-N-Me-D-Gln-Ile-Gly-N-Me-D-Phe-NH-Bn] (Glycolyl-L[dNMeQ]IG[dNMeF]-NHBn) | > 50 µM | > 50 µM |  | 
 |  | CC[C@H](C)[C@H](O)C(=O)N[C@@H](CC(C)C)C(=O)N(C)[C@H](CCC(N)=O)C(=O)N[C@H](C(=O)NCC(=O)OCc1ccccc1)[C@@H](C)CC [Compound S4, HO-Hmp-Leu-N-Me-D-Gln-Ile-Gly-OBn] ({Pentanoyl(2S-OH,3S-Me)}-L[dNMeQ]IG-OBn) | > 50 µM | > 50 µM |  | 
 |  | CC[C@H](C)[C@H](O)C(=O)N[C@@H](CC(C)C)C(=O)N(C)[C@H](CCC(N)=O)C(=O)N[C@H](C(=O)NCC(=O)N(C)[C@H](Cc1ccccc1)C(=O)Nc1ccccc1)[C@@H](C)CC [Compound C2, HO-Hmp-Leu-N-Me-D-Gln-Ile-Gly-N-Me-D-Phe-NH-Ph] ({Pentanoyl(2S-OH,3S-Me)}-L[dNMeQ]IG[dNMeF]-NHPh) | > 50 µM | 8.26 ± 1.22 µM |  | 
 |  | CC[C@H](C)[C@H](O)C(=O)N[C@@H](CC(C)C)C(=O)N(C)[C@@H](CCC(N)=O)C(=O)N[C@H](C(=O)NCC(=O)N(C)[C@H](Cc1ccccc1)C(=O)NCc1ccccc1)[C@@H](C)CC [Compound C3, HO-Hmp-Leu-N-Me-Gln-Ile-Gly-N-Me-D-Phe-NH-Bn] ({Pentanoyl(2S-OH,3S-Me)}-L[NMeQ]IG[dNMeF]-NHBn) | 2.24 ± 0.44 µM | 2.08 ± 0.33 µM |  | 
0.99 ± 0.09 µM | 0.85 ± 0.08 µM | COc1cc([C@@H]2c3cc4c(cc3[C@@H](O[C@@H]3O[C@@H]5CO[C@@H](C)O[C@H]5[C@H](O)[C@H]3O)[C@H]3COC(=O)[C@H]23)OCO4)cc(OC)c1O [Etoposide, etoposide, reference compound] |  |  |  | 
 |  | CC[C@H](C)[C@H](O)C(=O)N[C@@H](CC(C)C)C(=O)N(C)[C@H](CCC(N)=O)C(=O)N[C@H](C(=O)OCc1ccccc1)[C@@H](C)CC [Compound S3, HO-Hmp-Leu-N-Me-D-Gln-Ile-OBn] | > 50 µM | > 50 µM |  | 
 |  | CC[C@H](C)[C@H](O)C(=O)N[C@@H](CC(C)C)C(=O)N[C@H](CCC(N)=O)C(=O)N[C@H](C(=O)NCC(=O)N[C@H](Cc1ccccc1)C(=O)NCc1ccccc1)[C@@H](C)CC [Compound M3, HO-Hmp-Leu-D-Gln-Ile-Gly-D-Phe-NH-Bn] ({Pentanoyl(2S-OH,3S-Me)}-L[dQ]IG[dF]-NHBn) | > 50 µM | > 50 µM |  | 
 |  | CC[C@H](C)[C@H](O)C(=O)N[C@@H](CC(C)C)C(=O)N(C)[C@@H](CCC(N)=O)C(=O)N[C@H](C(=O)NCC(=O)N(C)[C@H](Cc1ccccc1)C(=O)N1CCc2ccccc2C1)[C@@H](C)CC [Compound C7, HO-Hmp-Leu-N-Me-Gln-Ile-Gly-N-Me-D-Phe-NH-TIQ] ({Pentanoyl(2S-OH,3S-Me)}-L[NMeQ]IG[dNMeF]-{Tetrahydroisoquinolin(2-yl)}) | 3.67 ± 0.66 µM | 3.8 ± 0.46 µM |  | 
 |  | CC[C@H](C)[C@H](O)C(=O)N[C@@H](CC(C)C)C(=O)N(C)[C@H](CCC(N)=O)C(=O)N[C@H](C(=O)NCC(=O)N[C@H](Cc1ccccc1)C(=O)NCc1ccccc1)[C@@H](C)CC [Compound M2, HO-Hmp-Leu-N-Me-D-Gln-Ile-Gly-D-Phe-NH-Bn] ({Pentanoyl(2S-OH,3S-Me)}-L[dNMeQ]IG[dF]-NHBn) | > 50 µM | > 50 µM |  | 
 |  | CC[C@H](C)[C@H](NC(=O)[C@@H](CCC(N)=O)N(C)C)C(=O)NCC(=O)N(C)[C@H](Cc1ccccc1)C(=O)N1CCC[C@H]1C(=O)OC [Compound S1, N,N-Me2-D-Gln-Ile-Gly-N-Me-D-Phe-Pro-OMe] (X1-IG[dNMeF]P-OMe) | > 50 µM | > 50 µM |  | 
 |  | CC[C@H](C)[C@H](O)C(=O)N[C@@H](CC(C)C)C(=O)N(C)[C@H](CCC(N)=O)C(=O)N[C@H](C(=O)NCC(=O)N(C)[C@H](Cc1ccccc1)C(=O)N1CCC[C@H]1C(=O)OC)[C@@H](C)CC [Compound T2, tasiamide] ({Pentanoyl(2S-OH,3S-Me)}-L[dNMeQ]IG[dNMeF]P-OMe) | > 50 µM | 0.58 ± 0.07 µM | 3.47 µg/mL | 0.48 µg/mL
 |  | CC[C@H](C)[C@H](O)C(=O)N[C@@H](CC(C)C)C(=O)N(C)[C@H](CCC(N)=O)C(=O)N[C@H](C(=O)NCC(=O)N(C)[C@H](Cc1ccccc1)C(=O)N1CCc2ccccc2C1)[C@@H](C)CC [Compound C8, HO-Hmp-Leu-N-Me-D-Gln-Ile-Gly-N-Me-D-Phe-NH-TIQ] ({Pentanoyl(2S-OH,3S-Me)}-L[dNMeQ]IG[dNMeF]-{Tetrahydroisoquinolin(2-yl)}) | > 50 µM | 3.64 ± 0.55 µM |  | 
 |  | CC[C@H](C)[C@H](O)C(=O)N[C@@H](CC(C)C)C(=O)N(C)[C@@H](CCC(N)=O)C(=O)N[C@H](C(=O)NCC(=O)N(C)[C@H](Cc1ccccc1)C(=O)N1Cc2ccccc2C[C@H]1C(=O)OC)[C@@H](C)CC [Compound C5, HO-Hmp-Leu-N-Me-Gln-Ile-Gly-N-Me-D-Phe-NH-MTC] ({Pentanoyl(2S-OH,3S-Me)}-L[NMeQ]IG[dNMeF][Tic]-OMe) | 5.24 ± 1.12 µM | 2.45 ± 0.41 µM |  | 
 |  | CC[C@H](C)[C@H](O)C(=O)N[C@@H](CC(C)C)C(=O)N(C)[C@@H](C)C(=O)N[C@H](C(=O)NCC(=O)N(C)[C@H](Cc1ccccc1)C(=O)NCc1ccccc1)[C@@H](C)CC [Compound C9, HO-Hmp-Leu-N-Me-Ala-Ile-Gly-N-Me-D-Phe-NH-Bn] ({Pentanoyl(2S-OH,3S-Me)}-L[NMeA]IG[dNMeF]-NHBn) | > 50 µM | > 50 µM |  | 
 |  | CC[C@H](C)[C@H](O)C(=O)N[C@@H](CC(C)C)C(=O)N(C)[C@H](CCC(N)=O)C(=O)N[C@H](C(=O)NCC(=O)N(C)[C@H](Cc1ccccc1)C(=O)N1Cc2ccccc2C[C@H]1C(=O)OC)[C@@H](C)CC [Compound C6, HO-Hmp-Leu-N-Me-D-Gln-Ile-Gly-N-Me-D-Phe-NH-MTC] ({Pentanoyl(2S-OH,3S-Me)}-L[dNMeQ]IG[dNMeF][Tic]-OMe) | 12.9 ± 1.32 µM | 8.52 ± 1.41 µM |  | 
